According to article PMC11477209, “Toxicological Evaluation of Kaempferol and Linearolactone as Treatments for Amoebic Liver Abscess Development in Mesocricetus auratus” (International Journal of Molecular Sciences, 2024):
Values after ≈ are worked out from the molar mass of the structure shown.

Legend:
[1] = system: E. histolytica trophozoites (amoebic liver abscess); assay: Amoebic liver abscess (ALA) model, antiparasitic protocol; assay type: in vivo, Mesocricetus auratus
Excerpt: M. auratus was used as an animal model because the hamster is naturally susceptible to infection by E. histolytica and can develop amoebic colitis or extraintestinal complications such as an ALA [71]. In this context, the hamster can be used to search for new alternative therapeutic agents against amoebiasis. The hamsters were acquired from Charles River Laboratories Inc. (Wilmington, MA, USA) in 2017 by Centro de Investigación y de Estudios Avanzados del Instituto Politécnico Nacional ([…]-IPN). […] Male hamsters (sexually mature and homozygous) weighing 95 ± 5 g and ≈10 weeks old were selected for the experiments. They were maintained in aseptic conditions at 25 ± 1 °C, 50 ± 3% humidity, a 12 h photoperiod, and ad libitum access to a standard diet (LabDiet; Richmond, IN, USA) and water (Figure 5A). The hamsters were housed in polycarbonate boxes (five per box), with an American Iron and Steel Institute (AISI) lid and wood shavings as bedding, in a controlled room of the Animal Production and Experimentation Unit (UPEAL) from […]-IPN (Figure 5A). Additionally, the health state of the hamsters and their adaptation to the new laboratory conditions were evaluated for 15 days to decrease their stress and anxiety levels. This study was carried out according to the Official Mexican Regulations (NOM-062-ZOO-1999) and NC3Rs ARRIVE [60, 72]. The protocol was approved by the Institutional Animal Care and Use Committee (Reg. No. 0183-16). Finally, the hamsters were not subjected to any previous experimental procedure or any additional treatment before beginning the experimental procedures (see File S1, NC3Rs ARRIVE Guidelines Checklist). Compounds that are prohibited and/or not recommended for use in animals by the American Veterinary Medical Association (Guidelines for the Euthanasia of Animals) were not used.
These experiments were performed with three independent biological replicates. For each replicate, twenty-five hamsters were randomly distributed (simple type) into five experimental groups (five animals per group). The sample size was determined based on the Organization for Economic Cooperation and Development (OECD) recommendations that establish the minimum number of individuals required for the tests so as not to sacrifice animals unnecessarily. Laparotomy was performed in aseptic conditions by using depilation, iodine solution, as well as sterile field cloths. Subsequently, an intra-hepatic puncture was made to deliver 1.5 × 10^6 virulent E. histolytica trophozoites in 100 μL of 1× PBS into the left hepatic lobe for ALA induction (Figure 5A-3). The injection site was immediately covered by applying a gel foam pad to maintain hemostasis. The abdominal layers were sutured discontinuously by single vertical stitches using Vicryl synthetic absorbable suture with a triangular pointed half circle needle. Irregular edges or folds in the surgical wound were eliminated to avoid tissue devitalization or possible infections. The development of a hepatic ALA was monitored for 4 days (Figure 5A-4).
(Figure 5B). The compounds were administered by the i.p. route because the peritoneal cavity presents rapid fluid absorption into the bloodstream, and initial biotransformation by the gastrointestinal tract is avoided. […] The hamsters were evaluated 24 h post-treatment to detect any signs of discomfort/pain or toxicity. The humane endpoint criteria used in this study were >20% body weight loss overnight, cachexia, recumbence, lethargy, respiratory distress, inability to reach food and water, lack of grooming, and ulceration around the surgical site, among others. Additionally, the weight of hamsters was determined at the beginning and end of the experiment with an electronic bascule (CS200, Ohaus; Parsippany, NJ, USA), and the ALA volume was calculated based on imaging (Figure 5B-1). […]

[2] = ALA hamsters
[3] = system: BEAS-2B cells; assay: MTT cytotoxicity assay; assay type: cell-based, human; details: 24 h
[4] = system: E. histolytica trophozoites (virulent HM-1 strain); assay: microbe, parasite or virus in culture; details: Entamoeba histolytica, 48 h, read-out: IC50 HM-1, 48 h, flow cytometry

C[C@]12C[C@H](c3ccoc3)OC(=O)[C@H]1CCC13COC(=O)C1=CC=C[C@H]32 (stereo partly drawn) [LL, (4S,7R,9R,10S)-7-(furan-3-yl)-9-methyl-6,16-dioxatetracyclo[8.7.0.01,14.04,9]heptadeca-11,13-diene-5,15-dione]
Edges ([1]; ALA characteristics): Regular and well defined
Leukocyte infiltrate ([1]; ALA characteristics): +/−
Liquid ([1]; ALA characteristics): −
Morphology ([1]; ALA characteristics): Loculated ovoid
ALA Volume ([1]; MRI, i.p. 4 days): 562.3 ± 23.3 * mm^3
MRI T1 signal of ALA ([1]; T1): Intermediate intensity
MRI T2 signal of ALA ([1]; T2): hypointense
ALA Weight ([1]; i.p. 4 days, KP 5, LL 10, MTZ 10 mg/kg/day): 0.40 ± 0.20 g
change in body weight compared with the control (disease-free) group [2]: −0.21%
Hamster weight ([2]; i.p. 4 days): 93.4 ± 7.2 g
Survival rate ([2]; i.p. 4 days): 100%
Toxicity signs ([2]; i.p. 4 days): None
biological activity symbol on IC50 BEAS-2B [3]: -
IC50 ([3]; Homo sapiens, BEAS-2B): 200 µg/mL (≈ 588 µM)
IC50 [4]: 7.8 µg/mL (≈ 22.9 µM)
